Experimental data: patent US10568854B2, “Compositions and methods for treating kabuki syndrome and related disorders” (THE JOHNS HOPKINS UNIVERSITY, priority 2014, dated 2020)
“Also recorded” adds a separate entry of the source.

How the values were obtained:
[1] = test system: Kmt2d^+/βGeo mice (mouse model of Kabuki syndrome); experiment: Morris water maze (Example 1); assay type: in vivo; details: 10 mg/kg/day
Excerpt: Animals: Kmt2d^+/βGeo mice, also named Mll2Gt^(RRt024)Byg, were acquired from Bay Genomics (University of California). All experimental mice were on a mixed C57BL/6J and 129/SvEv background. Expected Mendelian ratios were observed when heterozygous animals were bred to wild-type. In heterozygous crosses, however, there was uniform embryonic lethality of homozygotes by ED12, the earliest developmental stage assayed. For treatment with AR-42 mice were orally gavaged daily with drug (Selleck Chemicals, Houston, Tex.) solubilized in vehicle (0.5% methylcellulose, 0.1% Tween-80, water) or with vehicle alone. Drug delivery information was kindly provided by Drs. […] For quantification of DCX positive cells, doses of 0, 5, 10 and 25 mg/kg/day were used. […] Maxillary protrusion was evaluated by ten investigators blinded to genotype and they were asked to rate maxillary protrusion on radiographs as either large (2) or small (1). […]
Morris water maze: Mice were placed in a 1.1 meter diameter tank filled with room temperature water dyed with non-toxic white paint. […] Latency to reach the platform was measured during each trial. […] Average number of crossings of the platform's previous location was recorded. […] For all training and probe testing, data was recorded both manually and electronically with ANY-maze software (San Diego Instruments, San Diego, Calif.) when applicable. […]

[2] = test system: H3K4me3 indicator (H3K4 trimethylation machinery activity); experiment: H3K4me3 indicator reporter assay, FACS; assay type: cell-based; details: FIG. 17F
Excerpt: Design of the indicator constructs. A genetically encoded histone reporter allele system has been developed which can be used to monitor activity of any histone maintenance machinery component in live cells. Previously, FRET based epigenetic activity systems have been created (Lin and Ting (2004) Angew Chem Int Ed Engl. 24;43 (22):2940-3; Lin et al. (2004) J. Am. Chem. Soc. 19;126(19):5982-3; U.S. Pat. No. 7,056,683). However, FRET-based assays need a complex technological setup which is not widely available and FRET-based assays have been much more difficult to introduce into transgenic mouse models. […] The particular construct design is based on a circularly permutated green fluorescent protein (GFP) that lacks fluorescence unless the two parts of GFP are brought into close proximity by external forces (Baird et al. (1999) Proc. Natl. Acad. Sci. U.S.A. 28;96(20):11241-6). […]
An H3K4 trimethylation reporter was also created. […] The activity of the epigenetic modification system can be quantified through fluorescence.
Epigenetic reporter alleles: Epigenetic reporter alleles were synthesized (OriGene, Rockville, Md.) using published sequences for component elements (Baird et al. (1999) Proc. Nail. Acad. Sci. 96:11241-6; Souslova et al. (2007) BMC Biotechnol. 7:37). […] FACS data were analyzed using FlowJo (Tree Star Inc, Ashland, Oreg.). […]

Structure (SMILES): CC(C)[C@H](C(=O)Nc1ccc(C(=O)NO)cc1)c1ccccc1 [AR-42, (S)—N-hydroxy-4-(3-methyl-2-phenylbutanamido)benzamide]
- frequency of platform crossing during probe trial [1]: improved performance for both genotypes; also recorded: normalized
- escape latency during training, with versus without drug ([1]; Kmt2d^+/βGeo animals): No significant difference is observed
- H3K4me3 indicator response to increasing levels of drug [2]: dose dependent response
- cell numbers ([2]; higher doses): decreased cell numbers at higher doses
